Converted amounts (≈) assume the structure as drawn.
Assays:
Test in all cases: ≥ marks a high value that may be exact or a test limit, other limits are often not marked, values filed in µg/mL are converted to µM
[1] = test system: Enterobacter cloacae 218R
[2] = test system: Enterococcus faecalis ATCC 29212
[3] = test system: Enterococcus faecalis W61950
[4] = test system: Enterococcus faecalis f43559
[5] = test system: Enterococcus faecium mic80
[6] = test system: Enterococcus faecium t62764
[7] = test system: Escherichia coli ESBL 63103
[8] = test system: Escherichia coli ESBL 64771
[9] = test system: Klebsiella pneumoniae ESBL 61962
[10] = test system: Klebsiella pneumoniae ESBL 63575
[11] = test system: Pseudomonas aeruginosa 198
[12] = test system: Pseudomonas aeruginosa 213
[13] = test system: Pseudomonas aeruginosa 9
[14] = test system: Pseudomonas aeruginosa H1027
[15] = test system: Pseudomonas aeruginosa H1030
[16] = test system: Pseudomonas aeruginosa LES400
[17] = test system: Pseudomonas aeruginosa PAO1 H103
[18] = test system: Staphylococcus aureus ATCC 25923
[19] = test system: Staphylococcus aureus C623
[20] = test system: Stenotrophomonas maltophilia ATCC 13637
[21] = test system: Bacillus subtilis ATCC 6633
[22] = test system: Candida albicans ATCC 36232
[23] = test system: Corynebacterium diphtheriae ATCC 8024
[24] = test system: Escherichia coli ATCC 2592
[25] = test system: Micrococcus luteus ATCC 9341
[26] = test system: Pseudomonas aeruginosa ATCC 9027
[27] = test system: Shigella flexneri ATCC 203
[28] = test system: Staphylococcus aureus ATCC 6538
[29] = test system: Staphylococcus aureus
[30] = test system: Staphylococcus epidermidis ATCC 12228
[31] = test system: Bacillus subtilis ATCC 23631
[32] = test system: Erwinia amylovora PMV 6076
[33] = test system: Pseudomonas aeruginosa ATCC 27553
[34] = test system: Pseudomonas syringae pv. actinidiae Psa3700.1.1
[35] = test system: Pseudomonas syringae pv. syringae EPS 94
[36] = test system: Salmonella typhimurium ATCC 50013
[37] = test system: Shigella dysenteriae ATCC 51302
[38] = test system: Streptococcus pneumoniae ATCC 49619
[39] = test system: Xanthomonas arboricola pv. pruni CFBP 5563
[40] = test system: Xanthomonas campestris pv. Vesicatoria 2133-2
[41] = test system: Xanthomonas fragariae Xf349-9A
[42] = test system: Candida albicans 01U
[43] = test system: Candida albicans 38U
[44] = test system: Candida parapsilosis ATCC 22019
[45] = test system: Cryptococcus neoformans L26
[46] = test system: Cryptococcus neoformans L30
[47] = test system: Enterococcus faecalis ATCC 12953
[48] = test system: Escherichia coli ATCC 8739
[49] = test system: Klebsiella pneumoniae ATCC 13885
[50] = test system: Proteus mirabilis ATCC 25933
[51] = test system: Pseudomonas aeruginosa ATCC 15442
[52] = test system: Salmonella enterica subsp. enterica serovar Typhimurium ATCC 14028
[53] = test system: Staphylococcus aureus ATCC 29213
[54] = test system: Streptococcus pyogenes ATCC 19615
[55] = test system: Trichophyton mentagrophytes
[56] = test system: Trichophyton rubrum

`CC[C@H](C)[C@H](NC(=O)[C@H](CCCN=C(N)N)NC(=O)[C@@H](N)CCCCN)C(=O)N[C@@H](CCSC)C(=O)N[C@@H](CCCCN)C(=O)N[C@@H](CC(C)C)C(=O)N[C@@H](CCCCN)C(=O)N[C@@H](CCSC)C(=O)N[C@@H](CCCN=C(N)N)C(=O)O` [KRIMKLKMR] was tested, and the MIC [1] was at least 226 µM, the MIC [2] was over 226 µM and the MIC [3] was at least 226 µM. The MIC [4] was at least 226 µM, the MIC [5] was at least 226 µM and the MIC [6] was at least 226 µM. The MIC [7] was at least 226 µM, the MIC [8] was at least 226 µM and the MIC [9] was at least 226 µM. It also gave an MIC [10] of at least 226 µM, an MIC [11] of at least 226 µM and an MIC [12] of at least 226 µM. The MIC [13] was at least 226 µM, the MIC [14] was at least 226 µM and the MIC [15] was at least 226 µM. For the same molecule, the MIC [16] was at least 226 µM, the MIC [17] was at least 226 µM and the MIC [18] was over 226 µM. For the same molecule, the MIC [19] was at least 226 µM and the MIC [20] was at least 226 µM.
With `CC(C)[C@H](NC(=O)[C@H](CS)NC(=O)[C@@H](NC(=O)[C@H](CCCN=C(N)N)NC(=O)[C@H](CCCCN)NC(=O)CNC(=O)[C@H](CC(N)=O)NC(=O)[C@@H](N)CS)C(C)C)C(=O)N[C@@H](CS)C(N)=O` [CNGKRVCVC] the MIC [21] was at least 102 µM, the MIC [22] was at least 102 µM and the MIC [23] was at least 102 µM. The MIC [24] was at least 102 µM, the MIC [25] was at least 102 µM and the MIC [26] was over 102 µM. For the same molecule, the MIC [27] was at least 102 µM, the MIC [28] was over 102 µM and the MIC [29] was over 102 µM. It also gave an MIC [30] of over 102 µM.
In the case of `CC(C)C[C@H](NC(=O)CNC(=O)[C@H](CC(C)C)NC(=O)[C@H](Cc1ccccc1)NC(=O)[C@@H](NC(=O)[C@@H](N)CCCCN)C(C)C)C(=O)N[C@@H](CCCCN)C(=O)O` [KVFLGLK], the MIC [31] is reported as 29.8 µM (≈ 24 µg/mL), the MIC [32] is reported as at least 50 µM and the MIC [33] is reported as at least 79.6 µM. For the same molecule, the MIC [34] was at least 50 µM, the MIC [35] was at least 50 µM and the MIC [36] was at least 59.7 µM. The MIC [37] was at least 59.7 µM, the MIC [18] was 49.7 µM (≈ 40 µg/mL) and the MIC [38] was at least 69.6 µM. The MIC [39] was at least 50 µM, the MIC [40] was at least 50 µM and the MIC [41] was at least 50 µM.
`CSCC[C@H](NC(=O)CNC(=O)[C@H](CCC(N)=O)NC(=O)[C@H](C)NC(=O)[C@H](CCCN=C(N)N)NC(=O)CNC(=O)[C@H](C)NC(=O)[C@@H](NC(=O)[C@@H](N)CO)C(C)C)C(N)=O` [SVAGRAQGM] gave an MIC [21] of at least 36 µM, an MIC [42] of 18 µM (≈ 15.8 µg/mL) and an MIC [43] of 18 µM (≈ 15.8 µg/mL). For the same molecule, the MIC [44] was at least 144 µM, the MIC [45] was at least 144 µM and the MIC [46] was at least 144 µM. It also gave an MIC [47] of at least 36 µM, an MIC [32] of at least 50 µM and an MIC [48] of 18 µM (≈ 15.8 µg/mL). It also gave an MIC [49] of 9 µM (≈ 7.88 µg/mL), an MIC [50] of 18 µM (≈ 15.8 µg/mL) and an MIC [51] of 9 µM (≈ 7.88 µg/mL). It also gave an MIC [34] of at least 50 µM, an MIC [35] of at least 50 µM and an MIC [52] of 18 µM (≈ 15.8 µg/mL). For the same molecule, the MIC [53] was 18 µM (≈ 15.8 µg/mL), the MIC [54] was at least 36 µM and the MIC [55] was 18 µM (≈ 15.8 µg/mL). The MIC [56] was 18 µM (≈ 15.8 µg/mL), the MIC [39] was at least 50 µM and the MIC [40] was at least 50 µM. It also gave an MIC [41] of at least 50 µM.

From DBAASP
